“Also recorded” adds a separate entry of the source. Residues, ends and D or L forms follow the SMILES beside them. *: point of attachment. Myristoyl = CCCCCCCCCCCCCC(=O)*
Experiments:
S. typhimurium SL 1344 = format: cell-based, Salmonella typhimurium
Description: The MICs of Myr-36PW in vitro were measured through microdilution in accordance with the Clinical and Laboratory Standards Institute (CLSI, [2020]). The bacterial cells were cultured for 12 h at 37°C in the appropriate medium and then diluted to 1 × 10^6 CFU/mL. Equal volumes (100 μL) of bacterial cell suspension and two-fold serially diluted different concentrations peptides (0.0039–256 μg/mL) were added to each well of the sterile 96-well plate. The samples were incubated for 18 h at 37°C. After incubation, the MICs of the peptides were determined by evaluating the growth based on the OD600 of the cultures.

S. aureus ATCC 25923 [1] = test: Pneumonia (lung infection) model; format: in vivo, BALB/c mice; details: intranasal 40 μL, 1 μg/μL, once a day for 3 days; for Pathological scores of the lung sections: n = 5; for Bacterial CFU in lung homogenate: reduced vs PBS group P < 0.01, n = 5
Description: A pneumonia model in vivo was established as previously reported, with minor modification (Cortés et al., [2002]; Aoki et al., [2009]; Shi et al., [2018]). A total of 120 mice were randomly divided into two experimental models, one was intranasal inoculation of S. aureus ATCC 25923 (8.3 × 10^9 CFU/mL, 50 μL), and the other was intranasal inoculation of P. aeruginosa GIM 1.551 (4.5 × 10^10 CFU/mL, 50 μL). In the S. aureus ATCC 25923 model, 60 mice were divided into the following six groups of 10 mice each: no infection and treatment was used as a blank control, those with intranasal administration of PBS (40 μL) as the negative control group, those administered with benzylpenicillin potassium (40 μL, 1 μg/μL) as the positive control group, and the remaining three corresponded to Myr-36PW (40 μL, 1 μg/μL), PMAP-36PW (40 μL, 1 μg/μL), and PMAP-36 groups (40 μL, 1 μg/μL). The procedure for P. aeruginosa GIM 1.551 model is the same as for S. aureus ATCC 25923 model, except for the use of ampicillin sodium as the positive control. After 4 h post-inoculation, treatment was initiated, once a day for 3 days. The mice were sacrificed 24 h after the treatment. Changes in the appearance of lung tissues were observed, and lung tissues were removed aseptically from the mice. Half of the removed lung tissues were gently fixed in buffered formaldehyde solution for histopathological assessment by hematoxylin and eosin (H&E) staining. Pathological changes were scored to provide individual therapeutic status as described previously (Lei et al., [2018]). The remaining lung tissues were added with 1 mL of PBS, homogenized, and serially diluted. Bacterial CFU counts were determined.
Figure 8 Therapeutic effect for pneumonia by Myr-36PW in vivo. Mice were injected with S. aureus ATCC 25923 or P. aeruginosa GIM 1.551 to form pneumonia, and lungs (n = 5) in each group were collected on day 4 after intranasal bacterial inoculation. (A) Morphological changes of lung tissues. (B) Representative histopathological images of processed lung section with hematoxylin and eosin (H&E) staining. Images are presented at a magnification of 20×. a: inflammatory cell infiltration. b: the alveolar wall is thickened. c: alveolar wall congestion or alveolar hemorrhage. (C,D) Pathological scores of the lung sections. Scoring standard: 1 indicated no pathology, 2 indicated local pulmonary congestion and inflammatory cell infiltration, 3 indicated pulmonary congestion and a large number of inflammatory cell infiltration, affecting <20% of the section, 4 indicated pulmonary congestion and a large number of inflammatory cell infiltration, affecting 20–50% of the section, and 5 indicated pulmonary congestion and a large number of inflammatory cell infiltration, affecting >50% of the section. (E,F) Bacterial CFU in lung homogenate. BP is benzylpenicillin potassium, AS is ampicillin sodium. Data represent the mean ± SD of five individual experiments.

S. aureus ATCC 25923 [2] = test: Subcutaneous abscess model; format: in vivo, BALB/c mice; details: injected 20 μL, 1 μg/μL, once a day for 3 days; for Bacterial CFU in abscess area: n = 5
Description: A subcutaneous abscess model in vivo was established as previously reported (Zhao et al., [2019]). The mouse dorsal region with 3.0 cm diameter was treated with hair pusher. A total of 120 mice were randomly divided into two experimental models, one was challenged with S. aureus ATCC 25923 (2.5 × 10^8 CFU/mL, 60 μL), and the other was challenged with P. aeruginosa GIM 1.551 (3.0 × 10^8 CFU/mL, 60 μL). In the S. aureus ATCC 25923 model, 60 mice were divided into six groups of 10 members. The mice with no infection and treatment was used as a blank control, those directly injected with PBS (20 μL) as the negative control group, those injected with benzylpenicillin potassium (20 μL, 1 μg/μL) as the positive control group, and the remaining three groups as the treatment groups injected with Myr-36PW (20 μL, 1 μg/μL), PMAP-36PW (20 μL, 1 μg/μL), and PMAP-36 (20 μL, 1 μg/μL). The procedure in P. aeruginosa GIM 1.551 model is the same as that in S. aureus ATCC 25923 model, except for the use of ampicillin sodium as a positive control. Treatment once a day for 3 days was initiated when the mice developed prominent pustules on their backs. A day after the treatment, the size of the abscess was observed, and its tissues were excised, homogenized, and serially diluted. Bacteria CFU counts were calculated.
Figure 10 Treatment efficacy of subcutaneous abscess by Myr-36PW in vivo. Mice were injected with S. aureus ATCC 25923 or P. aeruginosa GIM 1.551 to develop a subcutaneous abscess before treatment. (A) Changes in the abscess area of mice after 3 days treatment. (B,C) Quantitative analysis of bacterial CFU in abscess area that received 3 days treatment under various experimental conditions. The number of CFU in each treatment group was normalized by using the CFU of the experimental group divided by the CFU of the PBS group (100%). BP is benzylpenicillin potassium, AS is ampicillin sodium. Data represent the mean ± SD of five individual experiments. *P < 0.05 and **P < 0.01, compared with PBS. ^#P < 0.05 and ^##P < 0.01, compared with PMAP-36PW.

For `CC1(C)S[C@@H]2[C@H](NC(=O)Cc3ccccc3)C(=O)N2[C@H]1C(=O)O` [Benzylpenicillin potassium], the “MICs of different classes of antibiotics” value (S. typhimurium SL 1344; S. typhimurium SL 1344, * indicates resistant (CLSI, 2020)) was 16 µg/mL, the “Lung histopathology (H&E)” value (S. aureus ATCC 25923 [1]) was “a complete alveolar structure, reduced blood stasis, and large reduction in inflammatory cells” and the “Pathological scores of the lung sections” value (S. aureus ATCC 25923 [1]) was “lower scores than PMAP-36PW group (P < 0.05)”. For the same compound, the “Bacterial CFU in lung homogenate” value (S. aureus ATCC 25923 [1]) was “reduced; also recorded: lower than that for PMAP-36PW group (P < 0.05)”, the Abscess area (S. aureus ATCC 25923 [2]) was “significantly reduced the abscess area and effectively suppressed its growth” and the “Bacterial CFU in abscess area” value (S. aureus ATCC 25923 [2]) was “lower than that in PBS group (P < 0.01)”.
`CCCCCCCCCCCCCC(=O)NCC(=O)NCC(=O)N[C@@H](CCCNC(=N)N)C(=O)N[C@@H](Cc1ccccc1)C(=O)N[C@@H](CCCNC(=N)N)C(=O)N[C@@H](CCCNC(=N)N)C(=O)N[C@@H](CC(C)C)C(=O)N[C@@H](CCCNC(=N)N)C(=O)N[C@@H](CCCCN)C(=O)N[C@@H](CCCCN)C(=O)N[C@H](C(=O)N[C@@H](CCCNC(=N)N)C(=O)N[C@@H](CCCCN)C(=O)N[C@@H](CCCNC(=N)N)C(=O)N[C@@H](CC(C)C)C(=O)N[C@@H](CCCCN)C(=O)N[C@@H](CCCCN)C(=O)N[C@H](C(=O)NCC(=O)N[C@@H](CCCCN)C(=O)N[C@H](C(=O)N[C@@H](CC(C)C)C(=O)N[C@@H](CCCCN)C(=O)N[C@@H](Cc1c[nH]c2ccccc12)C(=O)N[C@H](C(=O)N[C@@H](Cc1c[nH]c2ccccc12)C(=O)N[C@@H](Cc1c[nH]c2ccccc12)C(=O)N[C@H](C(=O)N[C@H](C(=O)NCC(=O)N[C@@H](CO)C(=O)N[C@H](C(=O)N1CCC[C@H]1C(=O)N[C@@H](CC(C)C)C(=O)NCC(=O)N[C@@H](CS)C(=O)NCC(=O)O)[C@@H](C)CC)C(C)C)[C@@H](C)CC)[C@@H](C)CC)C(C)C)[C@@H](C)CC)[C@@H](C)O` [Myr-36PW] (Myristoyl-GGRFRRLRKKTRKRLKKIGKVLKWIWWIVGSIPLGCG-OH; C-terminus assumed) was tested, and the MICs (S. typhimurium SL 1344; SL 1344, 18 h) was 8 µg/mL, the “Lung histopathology (H&E)” value (S. aureus ATCC 25923 [1]) was “a complete alveolar structure, reduced blood stasis, and large reduction in inflammatory cells” and the “Pathological scores of the lung sections” value (S. aureus ATCC 25923 [1]) was “lower scores than PMAP-36PW group (P < 0.05)”. For the same compound, the “Bacterial CFU in lung homogenate” value (S. aureus ATCC 25923 [1]) was “reduced; also recorded: lower than that for PMAP-36PW group (P < 0.05)”, the Abscess area (S. aureus ATCC 25923 [2]) was “significantly reduced the abscess area and effectively suppressed its growth” and the “Bacterial CFU in abscess area” value (S. aureus ATCC 25923 [2]) was “lower than that in PBS group (P < 0.01)”.

Source: publication PMC7481357, “N-terminal Myristoylation Enhanced the Antimicrobial Activity of Antimicrobial Peptide PMAP-36PW” (Frontiers in Cellular and Infection Microbiology, 2020)
